Assay results from US20260263593A1, “ALLERGY ANTIGEN AND EPITOPE THEREOF” (HOYU CO., LTD., priority 2018, published 2026).

System: IgE antibody present in the serum of a shrimp-allergic patient
Assay: Epitope mapping (1): array of overlapping 15-amino-acid peptides, chemiluminescence
Type: binding, human
Settings: 15-amino-acid peptide array; serum of 37 patients; difference from N2nd value of 5 non-shrimp-allergic subjects at least 35,000
Procedure: Epitope mapping was carried out using a library of overlapping peptides (length: 15 amino acids) corresponding to the amino acid sequences identified as allergy components of shrimp and the amino acid sequence of arginine kinase. Specifically, the library of overlapping peptides was prepared on the basis of the amino acid sequences of SEQ ID NOs: 117, 141, 146, 2, 45, 87, 276, 161, 230, 179, 362, 381, 399, 421, 455, 481, 486, 520, 541, 300 and 306, and arginine kinase.
The peptides to be synthesized were shifted by 10 amino acids.
For preparation of peptide arrays, the Intavis CelluSpots™ technique was used. Specifically, the peptide arrays were prepared by the following procedure: (1) synthesizing peptides of interest on amino-modified cellulose disks using an automated chemical synthesis apparatus (Intavis MultiPep RS), (2) dissolving the amino-modified cellulose disks to obtain a cellulose-bound peptide solution, and (3) spotting the cellulose-bound peptides onto coated glass slides. The details of each procedure are as described below.
Peptide synthesis was carried out in incremental steps through 9-fluorenylmethoxycarbonyl (Fmoc) chemical reaction on amino-modified cellulose disks in 384-well synthesis plates. Specifically, amino acids in which a Fmoc group is bonded to an amino group were activated in a solution of N,N′-diisopropylcarbodiimide (DIC) and 1-hydroxybenzotriazole (HOBt) in dimethylformamide (DMF) and added dropwise to the cellulose disks so that the Fmoc group-bound amino acids were bound to the amino groups on the cellulose disks (coupling). Unreacted amino groups were capped with acetic anhydride and washed with DMF. Furthermore, the Fmoc groups were eliminated from the amino groups of the amino acids bound to the amino groups on the cellulose disks by treatment with piperidine and washing with DMF. The amino acids bound to the amino groups on the cellulose disks were repetitively subjected to the coupling, the capping, and the Fmoc group elimination described above to elongate the amino terminus for peptide synthesis.
The peptides-bound cellulose disks of interest obtained above in the subsection titled “(1) Synthesis of peptide” were transferred to 96-well plates and treated with a side chain deprotection mixed solution of trifluoroacetic acid (TFA), dichloromethane, triisopropylsilane (TIPS), and water for deprotection of amino acid side chains. Then, the deprotected cellulose-bound peptides were dissolved in a mixed solution of TFA, trifluoromethanesulfonic acid (TFMSA), TIPS, and water and precipitated in tetrabutyl methyl ether (TBME), and the precipitate was resuspended in dimethyl sulfoxide (DMSO) and mixed with a mixed solution of NaCl, sodium citrate, and water to obtain a peptide solution for slide spotting.
The peptide solution for slide spotting obtained above in the subsection titled “(2) Dissolution of amino-modified cellulose disk” was spotted onto Intavis CelluSpots™ slides using Intavis Slide Spotting Robot, and the slides were dried to prepare peptide arrays.
The presence or absence of binding, to each peptide fragment, of an IgE antibody present in the serum of a shrimp-allergic patient was measured through antigen-antibody reaction using the peptide arrays. […]

Substance | Peptide bound to an IgE antibody in serum in a patient-specific manner
E8: common 15-residue IgE-binding epitope sequence of polypeptide (E8), myosin heavy chain type 2-derived (LEEADNQINQLNNLK; VAR_SEQ 1..15 epitope) [Epitope E8] | bound to an IgE antibody in serum in a patient-specific manner
E1: common 15-residue IgE-binding epitope sequence of polypeptide (E1), myosin heavy chain type 1-derived (ADIEVYLLEKARVIS; VAR_SEQ 1..15 epitope) [Epitope E1] | bound to an IgE antibody in serum in a patient-specific manner
E45: common 15-residue IgE-binding epitope sequence of polypeptide (E45), pyruvate kinase 3-derived (WHKQLFTELSQQVHL; VAR_SEQ 1..15 epitope) [Epitope E45] | bound to an IgE antibody in serum in a patient-specific manner
E3: common 15-residue IgE-binding epitope sequence of polypeptide (E3), myosin heavy chain type 1-derived (GYKDQLANLMKTLNA; VAR_SEQ 1..15 epitope) [Epitope E3] | bound to an IgE antibody in serum in a patient-specific manner
E49: common 15-residue IgE-binding epitope sequence of polypeptide (E49), troponin I-derived (RKKKLRLLLRKKAAE; VAR_SEQ 1..15 epitope) [Epitope E49] | bound to an IgE antibody in serum in a patient-specific manner
E9: common 15-residue IgE-binding epitope sequence of polypeptide (E9), myosin heavy chain type 2-derived (DQLATELDASQKECR; VAR_SEQ 1..15 epitope) [Epitope E9] | bound to an IgE antibody in serum in a patient-specific manner
E31: common 15-residue IgE-binding epitope sequence of polypeptide (E31), myosin heavy chain type 1-derived (ESRGRATLLGKFRNL; VAR_SEQ 1..15 epitope) [Epitope E31] | bound to an IgE antibody in serum in a patient-specific manner
E15: common 15-residue IgE-binding epitope sequence of polypeptide (E15), hemocyanin subunit L1-derived (LIPKGNEQGLEFDLV; VAR_SEQ 1..15 epitope) [Epitope E15] | bound to an IgE antibody in serum in a patient-specific manner
E36: common 15-residue IgE-binding epitope sequence of polypeptide (E36), myosin heavy chain type 1-derived (GNMKFKQRGREEQAE; VAR_SEQ 1..15 epitope) [Epitope E36] | bound to an IgE antibody in serum in a patient-specific manner
E11: common 15-residue IgE-binding epitope sequence of polypeptide (E11), myosin heavy chain type 2-derived (RSLHEIEKNAKRFEI; VAR_SEQ 1..15 epitope) [Epitope E11] | bound to an IgE antibody in serum in a patient-specific manner
E25: common 15-residue IgE-binding epitope sequence of polypeptide (E25), arginine kinase-derived (VNVDPEGKFVISTRV; VAR_SEQ 1..15 epitope) [Epitope E25] | bound to an IgE antibody in serum in a patient-specific manner
E35: common 15-residue IgE-binding epitope sequence of polypeptide (E35), myosin heavy chain type 1-derived (ERGYHIFYQMMSDQV; VAR_SEQ 1..15 epitope) [Epitope E35] | bound to an IgE antibody in serum in a patient-specific manner
E22: common 15-residue IgE-binding epitope sequence of polypeptide (E22), cyclophilin A-derived (VMELRADVVPKTAEN; VAR_SEQ 1..15 epitope) [Epitope E22] | bound to an IgE antibody in serum in a patient-specific manner
E42: common 15-residue IgE-binding epitope sequence of polypeptide (E42), myosin heavy chain type 1-derived (QLEDTKKMVDDESRE; VAR_SEQ 1..15 epitope) [Epitope E42] | bound to an IgE antibody in serum in a patient-specific manner
E37: common 15-residue IgE-binding epitope sequence of polypeptide (E37), myosin heavy chain type 1-derived (IMHQLTCNGVLEGIR; VAR_SEQ 1..15 epitope) [Epitope E37] | bound to an IgE antibody in serum in a patient-specific manner
E50: common 15-residue IgE-binding epitope sequence of polypeptide (E50), cyclophilin A-derived (AADNQPVGRIVMELR; VAR_SEQ 1..15 epitope) [Epitope E50] | bound to an IgE antibody in serum in a patient-specific manner
E27: common 15-residue IgE-binding epitope sequence of polypeptide (E27), myosin heavy chain type 1-derived (KLVTVKLPSGETKDF; VAR_SEQ 1..15 epitope) [Epitope E27] | bound to an IgE antibody in serum in a patient-specific manner
E47: common 15-residue IgE-binding epitope sequence of polypeptide (E47), phosphopyruvate hydratase-derived (HLKAVIKGRFGLDAT; VAR_SEQ 1..15 epitope) [Epitope E47] | bound to an IgE antibody in serum in a patient-specific manner
E12: common 15-residue IgE-binding epitope sequence of polypeptide (E12), glycogen phosphorylase-derived (LPEALERWPTSMLEH; VAR_SEQ 1..15 epitope) [Epitope E12] | bound to an IgE antibody in serum in a patient-specific manner
E19: common 15-residue IgE-binding epitope sequence of polypeptide (E19), mitochondrial ATP synthase subunit alpha precursor-derived (VLSIGDGIARVYGLK; VAR_SEQ 1..15 epitope) [Epitope E19] | bound to an IgE antibody in serum in a patient-specific manner
E18: common 15-residue IgE-binding epitope sequence of polypeptide (E18), phosphopyruvate hydratase-derived (NKLAMQEFMILPTGA; VAR_SEQ 1..15 epitope) [Epitope E18] | bound to an IgE antibody in serum in a patient-specific manner
E33: common 15-residue IgE-binding epitope sequence of polypeptide (E33), myosin heavy chain type 1-derived (TKPYDPKKSCWVPDD; VAR_SEQ 1..15 epitope) [Epitope E33] | bound to an IgE antibody in serum in a patient-specific manner
E30: common 15-residue IgE-binding epitope sequence of polypeptide (E30), myosin heavy chain type 1-derived (MLEAKDDKKAATACF; VAR_SEQ 1..15 epitope) [Epitope E30] | bound to an IgE antibody in serum in a patient-specific manner
